Test results from ChEMBL document CHEMBL1133580, “Successful virtual screening of a chemical database for farnesyltransferase inhibitor leads” (J Med Chem, 2000).
Activity calls are given as the source filed them. No cut-off for these calls is given here.

What was measured:
Assay type in all cases: protein-complex assay
[1] = molecular target: T1, Protein farnesyltransferase (Rattus norvegicus) (UniProt Q04631+Q02293); test: In vitro inhibition of farnesyl transferase (FT) by using FT [3H]-SPA kit at the dose of 500 uM
[2] = molecular target: T1, Protein farnesyltransferase (Rattus norvegicus); test: In vitro inhibition of farnesyl transferase (FT) by using FT [3H]-SPA kit; IA is inactive
[3] = molecular target: T1, Protein farnesyltransferase (Rattus norvegicus); test: In vitro inhibition of farnesyl transferase (FT) by using FT [3H]-SPA kit at the dose of 100 uM
[4] = molecular target: Protein farnesyltransferase (Rattus norvegicus, UniProt Q02293+Q04631); test: In vitro inhibition of Farnesyltransferase (FT) by using FT [3H]-SPA kit.

Row | Structure (SMILES) | inhibition [2] | inhibition [3] | also measured
1 | CC(=O)OCC(COC(C)=O)(CN1C(=O)c2ccccc2C1=O)CN1C(=O)c2ccccc2C1=O | – | – | inhibition [1]: 60.2%
2 | O=[N+]([O-])c1cc(C(F)(F)F)cc([N+](=O)[O-])c1Oc1ccc(S(=O)(=O)N2CCOCC2)cc1 | – | – | inhibition [1]: 50.8%
3 | O=C(Nc1ccc(F)cc1[N+](=O)[O-])Oc1ccc2cc(Br)ccc2c1 | – | 26.4% | –
4 | CN(C)c1ccc(C(=O)N/N=C/c2ccccc2[N+](=O)[O-])cc1 | – | – | inhibition [1]: 28.3%
5 | COc1cc(C(c2c(O)oc3ccccc3c2=O)c2c(O)oc3ccccc3c2=O)cc(OC)c1OC | – | 27.8% | –
6 | CC(C)C(NC(=O)OCc1ccccc1)C(=O)NC(C)(C)C (stereo not drawn) | inactive | – | –
7 | Cc1ccc(S(=O)(=O)NC2(Nc3cccc(C)c3)C(Cl)=C(Cl)C(=O)C(Cl)(Cl)C2(Cl)Cl)cc1 (stereo not drawn) | – | – | inhibition [1]: 24.9%
8 | COc1cccc(C2Nc3ccccc3CN2NS(=O)(=O)c2ccc(C)cc2)c1O (stereo not drawn) | – | – | inhibition [1]: 16.8%
9 | O=C(Cc1cccc2ccccc12)NC(NC(=S)N1CCOCC1)C(Cl)(Cl)Cl (stereo not drawn) | – | 23.8% | –
10 | CCN(CC)c1cccc(OC(=O)Nc2cccc(C(F)(F)F)c2)c1 | – | – | inhibition [1]: 21.2%
11 | COc1ccc(CCN2C(=O)CS/C2=N\c2c(C)cccc2C)cc1OC | inactive | – | –
12 | CC(=O)c1cc(C(=O)c2ccc(F)cc2)n2cnc3cc(F)ccc3c12 | – | 24.5% | –
13 | Cc1c(/N=C/N(C(=O)c2ccccc2)c2cccc([N+](=O)[O-])c2C)cccc1[N+](=O)[O-] | – | – | inhibition [1]: 17%
14 | Nc1c(C(=O)Nc2ccccc2)sc2nc3c(c(-c4cccnc4)c12)CCC3 | – | – | inhibition [1]: 23.9%
15 | O=C1NC(=S)S/C1=C\c1ccccc1I | – | 39.2% | –
16 | CCN(CC#N)c1ccc(/C=N/c2ccc(SC)cc2)cc1 | – | – | inhibition [1]: 15.8%
17 | O=C(Cc1c(Cl)cc(Cl)cc1Cl)C(=O)Oc1c(Cl)cc(Cl)cc1Cl | inactive | – | –
18 | CSc1nc(N/C=C(\C#N)S(=O)(=O)c2ccccc2Cl)nc(N(C)C)n1 | inactive | – | –
19 | Cc1cc(-c2nc(-c3ccc(C(F)(F)F)cc3)no2)n(C)n1 | inactive | – | –
20 | O=C(OCC(F)(F)C(F)(F)C(F)(F)C(F)(F)F)c1cc([N+](=O)[O-])cc2c1-c1c(cc([N+](=O)[O-])cc1[N+](=O)[O-])C2=O | – | 41.1% | –
21 | NC(=O)c1cc2c(c([N+](=O)[O-])c1)-c1c(cc(C(N)=O)cc1[N+](=O)[O-])C2=O | – | – | inhibition [1]: 27.3%
22 | CCCCCCn1c(N)c(C#N)c2ccc([N+](=O)[O-])cc2c1=O | – | 32.2% | –
23 | O=C1c2cc([N+](=O)[O-])cc(C(=O)N3CCCCC3)c2-c2c1cc([N+](=O)[O-])cc2[N+](=O)[O-] | – | – | IC50 [4]: 96 µM
24 | COc1ccccc1/N=C(\S)NC1CCCCCCCCCCC1 | inactive | – | –

The next lines start with results.

Row | inhibition [2] | inhibition [3] | Structure (SMILES) | also measured
25 | inactive | – | Clc1ccc(-c2cc(-c3csc(N/N=C/c4ccccc4)n3)on2)c(Cl)c1 | –
26 | inactive | – | Cc1c(-c2ccnc(SCc3ccccc3)n2)sc2ccc(Cl)cc12 | –
27 | – | 19.7% | O=C(Oc1cc(S(=O)(=O)c2ccccc2)ccc1[N+](=O)[O-])c1cccnc1Cl | –
28 | – | 41.6% | Cc1ccc(S(=O)(=O)C(Cl)(Cl)S(=O)(=O)c2ccc(C)cc2)cc1 | –
29 | inactive | – | O=C(NC(=O)C(c1ccc(Cl)cc1)c1ncc(C(F)(F)F)cc1Cl)Nc1ccc(Cl)cc1 (stereo not drawn) | –
30 | inactive | – | COc1cccc(NS(=O)(=O)c2ccc(-c3ccc(S(=O)(=O)Nc4cccc(OC)c4)s3)s2)c1 | –
31 | inactive | – | O=[N+]([O-])c1ccc(-c2csc(-c3ccc(Cl)cc3)n2)cc1CS(=O)(=O)c1ccc(Cl)cc1 | –
32 | – | 16.8% | Cc1ccc(S(=O)(=O)N(C)c2ccc(Cl)cc2C2=NCC(C)(C)c3ccccc32)cc1 | –
33 | inactive | – | N=C(NOC(=O)Nc1ccc(Cl)cc1)c1ccc(OCc2ncc(C(F)(F)F)cc2Cl)cc1 | –
34 | – | 43.9% | O=[N+]([O-])c1ccc(C2CC(c3cccnc3)=NN2c2ccccc2)cc1 (stereo not drawn) | –
35 | inactive | – | O=C(N/N=C/c1ccccc1O)N(c1ccccc1)c1ccccc1 | –
36 | – | 30% | COc1ccc(C=C(C(=O)c2ccccc2)C(=O)c2ccccc2)cc1 | –
37 | inactive | – | O=C1c2cccc([N+](=O)[O-])c2C(=O)N1c1ccc(S(=O)(=O)c2ccc(N3C(=O)c4cccc([N+](=O)[O-])c4C3=O)cc2)cc1 | –
38 | inactive | – | Cc1cc(C)c(S(=O)(=O)Cc2ccccc2)c(OC(C)C)n1 | –
